Values of other authors as cited in patent US20040166561A1, “Novel intein and uses thereof” (priority 2001, published 2004).

Key:
[1] = system: RecA intein from Mycobacterium tuberculosis; conditions: 0.2 mM zinc (6parts/million); in vitro, splicing in trans
[2] = biological target: T1, naturally split DnaE intein from Synechocystis sp. PCC6803 (Synechocystis sp., UniProt P74750); conditions: 0.2 mM zinc (6parts/million); in vitro, splicing in trans
T1 construct: by the naturally split DnaE intein from Synechocystis sp; PCC6803

[Zn+2] [zinc]
inhibition of protein splicing [1]: 90% | inhibition of protein splicing [2]: 90%
